Laboratory results from PubChem BioAssay (NCI).
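Cells were grown in 96-well plates and exposed to each compound for 48 hours at five concentrations; endpoints were interpolated linearly between bracketing concentrations, or set to the highest concentration if not reached. GI50: concentration for 50% inhibition of growth. At the TGI there is no net growth.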

Tests used:
Experiment in all cases: inhibition of tumour cell growth, NCI panel, 48 h
MDA-MB-231 breast = test system: MDA-MB-231 breast
OVCAR-3 ovarian = test system: OVCAR-3 ovarian
M14 melanoma = test system: M14 melanoma
SK-MEL-28 melanoma = test system: SK-MEL-28 melanoma
SNB-75 CNS = test system: SNB-75 CNS
U251 CNS = test system: U251 CNS
NCI/ADR-RES ovarian = test system: NCI/ADR-RES ovarian
HCT-116 colon = test system: HCT-116 colon
CAKI-1 renal = test system: CAKI-1 renal
BT-549 breast = test system: BT-549 breast
COLO 205 colon = test system: COLO 205 colon
MOLT-4 leukemia = test system: MOLT-4 leukemia
OVCAR-5 ovarian = test system: OVCAR-5 ovarian
MALME-3M melanoma = test system: MALME-3M melanoma
SF-268 CNS = test system: SF-268 CNS
RPMI-8226 leukemia = test system: RPMI-8226 leukemia
IGROV1 ovarian = test system: IGROV1 ovarian
ACHN renal = test system: ACHN renal
HCT-15 colon = test system: HCT-15 colon
KM12 colon = test system: KM12 colon
HL-60(TB) leukemia = test system: HL-60(TB) leukemia
MCF7 breast = test system: MCF7 breast
A549 NSCLC = test system: A549 NSCLC
UACC-62 melanoma = test system: UACC-62 melanoma
T-47D breast = test system: T-47D breast
EKVX NSCLC = test system: EKVX NSCLC
UACC-257 melanoma = test system: UACC-257 melanoma
PC-3 prostate = test system: PC-3 prostate
HOP-62 NSCLC = test system: HOP-62 NSCLC
NCI-H23 lung = test system: NCI-H23 lung
786-0 renal = test system: 786-0 renal
SW-620 colon = test system: SW-620 colon
SF-295 CNS = test system: SF-295 CNS
SF-539 CNS = test system: SF-539 CNS
SNB-19 CNS = test system: SNB-19 CNS
RXF 393 renal = test system: RXF 393 renal
NCI-H522 lung = test system: NCI-H522 lung
HOP-92 NSCLC = test system: HOP-92 NSCLC
HS 578T breast = test system: HS 578T breast
K-562 leukemia = test system: K-562 leukemia
DU-145 prostate = test system: DU-145 prostate
SN12C renal = test system: SN12C renal
TK-10 renal = test system: TK-10 renal
LOX IMVI melanoma = test system: LOX IMVI melanoma
SK-OV-3 ovarian = test system: SK-OV-3 ovarian
OVCAR-8 ovarian = test system: OVCAR-8 ovarian
NCI-H226 lung = test system: NCI-H226 lung
MDA-MB-435 = test system: MDA-MB-435
NCI-H460 lung = test system: NCI-H460 lung
SR leukemia = test system: SR leukemia
UO-31 renal = test system: UO-31 renal
A498 renal = test system: A498 renal
SK-MEL-5 melanoma = test system: SK-MEL-5 melanoma
HCC-2998 colon = test system: HCC-2998 colon
CCRF-CEM leukemia = test system: CCRF-CEM leukemia
OVCAR-4 ovarian = test system: OVCAR-4 ovarian
HT29 colon = test system: HT29 colon

COc1cc2c(cc1OCc1ccccc1)N=C[C@@H]1C/C(=C/C(=O)NCCCN3C(=O)c4cccc5cccc(c45)C3=O)CN1C2=O
GI50 (MDA-MB-231 breast): 708 nM
TGI (MDA-MB-231 breast): 6140 nM
GI50 (OVCAR-3 ovarian): 273 nM
TGI (OVCAR-3 ovarian): 3720 nM
GI50 (M14 melanoma): 2170 nM
TGI (M14 melanoma): 6920 nM
GI50 (SK-MEL-28 melanoma): 1960 nM
TGI (SK-MEL-28 melanoma): 24800 nM
GI50 (SNB-75 CNS): 877 nM
TGI (SNB-75 CNS): 3660 nM
GI50 (U251 CNS): 444 nM
TGI (U251 CNS): > 100000 nM
GI50 (NCI/ADR-RES ovarian): 12800 nM
TGI (NCI/ADR-RES ovarian): > 100000 nM
GI50 (HCT-116 colon): 538 nM
TGI (HCT-116 colon): > 100000 nM
GI50 (CAKI-1 renal): 2140 nM
TGI (CAKI-1 renal): 19700 nM
GI50 (BT-549 breast): 273 nM
TGI (BT-549 breast): 1080 nM
GI50 (COLO 205 colon): 1560 nM
TGI (COLO 205 colon): 4810 nM
GI50 (MOLT-4 leukemia): 55.3 nM
TGI (MOLT-4 leukemia): 63900 nM
GI50 (OVCAR-5 ovarian): 617 nM
TGI (OVCAR-5 ovarian): 14400 nM
GI50 (MALME-3M melanoma): 272 nM
TGI (MALME-3M melanoma): 1060 nM
GI50 (SF-268 CNS): 314 nM
TGI (SF-268 CNS): 5010 nM
GI50 (RPMI-8226 leukemia): 432 nM
TGI (RPMI-8226 leukemia): > 100000 nM
GI50 (IGROV1 ovarian): 468 nM
GI50 (ACHN renal): 3820 nM
TGI (ACHN renal): > 61400 nM
GI50 (HCT-15 colon): 3960 nM
TGI (HCT-15 colon): > 100000 nM
GI50 (KM12 colon): 1090 nM
TGI (KM12 colon): 6590 nM
GI50 (HL-60(TB) leukemia): 171 nM
TGI (HL-60(TB) leukemia): > 23300 nM
GI50 (MCF7 breast): 256 nM
TGI (MCF7 breast): 14300 nM
GI50 (A549 NSCLC): 3050 nM
TGI (A549 NSCLC): > 100000 nM
GI50 (UACC-62 melanoma): 599 nM
TGI (UACC-62 melanoma): 2550 nM
GI50 (T-47D breast): 137 nM
TGI (T-47D breast): 3060 nM
GI50 (EKVX NSCLC): 1750 nM
TGI (EKVX NSCLC): 6170 nM
GI50 (UACC-257 melanoma): 2260 nM
GI50 (PC-3 prostate): 351 nM
TGI (PC-3 prostate): 9350 nM
GI50 (HOP-62 NSCLC): 583 nM
TGI (HOP-62 NSCLC): > 40300 nM
GI50 (NCI-H23 lung): 352 nM
TGI (NCI-H23 lung): 1890 nM
GI50 (786-0 renal): 423 nM
TGI (786-0 renal): 11000 nM
GI50 (SW-620 colon): 284 nM
TGI (SW-620 colon): 15500 nM
GI50 (SF-295 CNS): 630 nM
TGI (SF-295 CNS): 9490 nM
GI50 (SF-539 CNS): 332 nM
TGI (SF-539 CNS): 1470 nM
GI50 (SNB-19 CNS): 348 nM
TGI (SNB-19 CNS): > 56700 nM
GI50 (RXF 393 renal): 231 nM
TGI (RXF 393 renal): 651 nM
GI50 (NCI-H522 lung): 228 nM
GI50 (HOP-92 NSCLC): 724 nM
TGI (HOP-92 NSCLC): 4760 nM
GI50 (HS 578T breast): 539 nM
TGI (HS 578T breast): 6510 nM
GI50 (K-562 leukemia): 424 nM
TGI (K-562 leukemia): > 100000 nM
GI50 (DU-145 prostate): 381 nM
TGI (DU-145 prostate): 11900 nM
GI50 (SN12C renal): 346 nM
TGI (SN12C renal): 2400 nM
GI50 (TK-10 renal): 466 nM
TGI (TK-10 renal): 3430 nM
GI50 (LOX IMVI melanoma): 277 nM
TGI (LOX IMVI melanoma): > 35800 nM
GI50 (SK-OV-3 ovarian): 8350 nM
TGI (SK-OV-3 ovarian): 33500 nM
GI50 (OVCAR-8 ovarian): 1220 nM
GI50 (NCI-H226 lung): 2820 nM
TGI (NCI-H226 lung): > 100000 nM
GI50 (MDA-MB-435): 673 nM
TGI (MDA-MB-435): 3050 nM
GI50 (NCI-H460 lung): 603 nM
TGI (NCI-H460 lung): 7150 nM
GI50 (SR leukemia): > 100000 nM
TGI (SR leukemia): > 100000 nM
GI50 (UO-31 renal): 2680 nM
TGI (UO-31 renal): > 20700 nM
GI50 (A498 renal): 1450 nM
TGI (A498 renal): 4070 nM
GI50 (SK-MEL-5 melanoma): 1040 nM
TGI (SK-MEL-5 melanoma): 3330 nM
GI50 (HCC-2998 colon): 142 nM
TGI (HCC-2998 colon): 1260 nM
GI50 (CCRF-CEM leukemia): 54.8 nM
TGI (CCRF-CEM leukemia): > 100000 nM
GI50 (OVCAR-4 ovarian): 2630 nM
TGI (OVCAR-4 ovarian): > 100000 nM
GI50 (HT29 colon): 825 nM
TGI (HT29 colon): > 100000 nM
